Columns and labels:
[1] = biological target: T1, ULK3 (Unc-51-like kinase 3) (Homo sapiens, UniProt Q6PHR2); experiment: SILAC LC-MS ATP acyl phosphate probe competition, native kinases in HEK293T; assay type: binding; conditions: site Lys1; ATP 1 mM; Ketanserin, Ritanserin 100 μM; RF001 1 mM
T1 construct: Native kinases; endogenous in cells; host or cells: HEK293T soluble proteome
T1 sequence (Q6PHR2 1-472): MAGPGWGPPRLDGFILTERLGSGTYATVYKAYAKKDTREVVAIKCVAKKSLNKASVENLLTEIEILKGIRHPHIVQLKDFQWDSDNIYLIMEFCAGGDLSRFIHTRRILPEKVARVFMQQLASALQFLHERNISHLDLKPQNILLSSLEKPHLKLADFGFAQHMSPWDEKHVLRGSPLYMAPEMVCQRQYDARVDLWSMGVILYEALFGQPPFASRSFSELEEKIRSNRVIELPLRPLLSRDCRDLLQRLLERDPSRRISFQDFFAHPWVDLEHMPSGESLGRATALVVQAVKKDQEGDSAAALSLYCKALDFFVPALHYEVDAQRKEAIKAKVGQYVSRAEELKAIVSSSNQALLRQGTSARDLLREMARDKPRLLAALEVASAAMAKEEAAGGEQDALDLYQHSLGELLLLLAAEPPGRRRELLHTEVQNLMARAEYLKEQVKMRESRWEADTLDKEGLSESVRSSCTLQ
Experimental: (§1) Proteomes were diluted to 2 mg/ml in kinase buffer. The light and heavy proteomes (0.5 mg, 250 μL total reaction volume) were pre-treated with vehicle or compound, respectively (5 μL, DMSO (light) or 50× stock in DMSO (heavy)), mixed gently, and incubated at 25° C. for 30 min. […] After incubation, matched light and heavy proteomes were transferred and mixed in a 1:1 ratio in a two-dram vial containing 4:1:3 MeOH/CHCl3/H2O (2 mL MeOH, 500 AL CHCl3, 1.5 mL H2O) for extraction of proteins to remove excess probe, quickly vortexed, and centrifuged at 1,400×g for 3 min to pellet protein. Organic and aqueous layers were removed using a Pasteur pipette, and the protein pellet was transferred to a screw-top tube in 600 μL MeOH. A second extraction was performed by adding CHCl3 (150 μL) and H2O (600 μL) to each sample, vortexed, and centrifuged at 1,400×g for 3 min to pellet protein. Organic and aqueous layers were removed by pipetting. MeOH added to pellet (600 μL) and pellets were re-suspended by sonication (3×1 sec pulse, 20% amplitude) for a final extraction. Samples were then centrifuged at 17,000×g for 5 min to pellet protein and MeOH was removed by pipetting. The pellets were re-suspended in 10 M urea/25 mM ammonium bicarbonate ([…]), brought to a final volume of 1 mL with 25 mM ammonium bicarbonate, reduced with 10 mM DTT for 15 min at 65° C. allowed to cool, and then alkylated with 40 mM iodoacetamide for 30 min at 25° C. in the dark. To desalt the samples, each was transferred to a two-dram glass vial, and to the vial 4:1:2 MeOH/CHCl3/H2O (2 mL MeOH, 500 AL CHCl3, 1 mL H2O) was added. The vials were vortexed quickly, spun at 1.400×g for 3 min to pellet protein, and aqueous and organic layers were removed using a Pasteur pipette. The resulting protein pellet was transferred to a screw-top tube in 600 μL MeOH, and then CHCl3 (150 μL) and HO (600 μL) were added to extract protein a second time. The samples were vortexed quickly, centrifuged at 1,400×g to pellet protein, and the aqueous and organic layers were removed by pipetting. Resulting protein pellet was suspended in MeOH (600 μL) via sonication (3×1 sec pulse, 20% amplitude), centrifuged at 17,000×g for 5 min to pellet protein, and MeOH removed by pipetting. Protein pellets were then re-suspended in 25 mM ammonium bicarbonate (500 μL) and digested with 7.5 μg Trypsin/Lys-C(Promega, 15 μL, 0.5 μg/μL) for 3 h at 37° C. Avidin-agarose beads (Thermo Scientific Pierce, 100 AL aliquot per sample) were washed three times by adding 10 mL DPBS, centrifuged at 1,400×g for 1 min, and decanting. This wash step was repeated for a total of 3 times. Digested protein samples were mixed with washed avidin beads (100 μL) and brought to a volume of 5.5 mL with DPBS in a 15 mL conical and rotated for 1 h to enrich samples for the covalent desthiobiotin modification. The beads were washed with 25 mM ammonium bicarbonate (3× with 10 mL, centrifuge at 1,400×g for 3 min, decant) and then H2O (3× with 10 mL, centrifuge at 1,400×g for 3 min, decant). Washed beads were then transferred to a low-bind microfuge tube, centrifuged at 1,400×g for 3 min, allowed to rest for 1 min to settle beads, and then excess H2O was removed carefully using a gel-loading pipette tip. To elute peptides, 100 μL of elution buffer (50% acetonitrile, ACN; 0.1% formic acid) was added to each sample and incubated for 3 min. Beads were spun down at 1.400×g for 3 min, allowed to rest for 1 min to settle beads, and then 75 μL of peptide-containing supernatant was removed carefully using a gel-loading pipette tip and transferred to a new low bind centrifuge tube. This step was repeated two more times with 75 μL of elution buffer and all eluent were collected into the same centrifuge tube (˜225 μL total). Peptides were dried on a speed vacuum, resulting peptide samples acidified in 5% (v/v) formic acid, and stored at −80° C. until analysis.
(§2) The peptide samples were analyzed by liquid chromatography-mass spectrometry. […]

[2] = biological target: T2, FER (Proto-oncogene tyrosine-protein kinase FER) (Homo sapiens, UniProt P16591); experiment: as above; assay type: binding; conditions: site Lys1 (K591); ATP 1 mM; Ketanserin, Ritanserin 100 μM; RF001 1 mM
T2 construct: measured against >50 native kinases quantified in HEK293T soluble proteomes; endogenous in cells; host or cells: HEK293T soluble proteome
T2 sequence (P16591 whole entry): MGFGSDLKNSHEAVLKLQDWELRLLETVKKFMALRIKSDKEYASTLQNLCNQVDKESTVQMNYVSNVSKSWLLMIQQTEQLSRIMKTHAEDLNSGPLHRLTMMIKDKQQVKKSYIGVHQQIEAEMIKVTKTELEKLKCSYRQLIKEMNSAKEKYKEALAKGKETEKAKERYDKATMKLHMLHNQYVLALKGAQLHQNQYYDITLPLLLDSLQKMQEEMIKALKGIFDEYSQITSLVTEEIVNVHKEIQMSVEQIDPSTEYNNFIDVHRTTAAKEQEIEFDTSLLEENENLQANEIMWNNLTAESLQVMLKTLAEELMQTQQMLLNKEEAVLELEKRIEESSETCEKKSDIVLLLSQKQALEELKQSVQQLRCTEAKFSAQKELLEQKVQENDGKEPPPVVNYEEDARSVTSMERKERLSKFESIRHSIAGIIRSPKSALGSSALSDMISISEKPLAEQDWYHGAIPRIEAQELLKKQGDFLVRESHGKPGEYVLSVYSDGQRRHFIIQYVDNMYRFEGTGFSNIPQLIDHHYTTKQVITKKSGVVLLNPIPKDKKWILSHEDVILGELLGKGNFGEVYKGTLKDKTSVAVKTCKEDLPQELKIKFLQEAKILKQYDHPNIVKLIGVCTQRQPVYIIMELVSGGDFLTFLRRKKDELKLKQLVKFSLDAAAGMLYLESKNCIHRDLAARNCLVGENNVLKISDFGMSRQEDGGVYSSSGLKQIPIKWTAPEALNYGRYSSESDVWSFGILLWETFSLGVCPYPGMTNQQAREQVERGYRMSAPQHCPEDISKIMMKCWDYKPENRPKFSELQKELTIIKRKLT
Experimental: as §1, §2

SILAC ratio, ULK3 probe-modified peptide [1]	SILAC ratio, FER probe-modified peptide [2]	Compound
2.3	1.4	O=C(c1ccc(F)cc1)C1CCN(CCn2c(=O)[nH]c3ccccc3c2=O)CC1 [Ketanserin]
1.4	1.2	Fc1ccc(C(=C2CCNCC2)c2ccc(F)cc2)cc1 [RF001, 4-(Bis(4-fluorophenyl)methylene) piperidine]

Compound	SILAC ratio, ULK3 probe-modified peptide [1]	SILAC ratio, FER probe-modified peptide [2]
Cc1nc2sccn2c(=O)c1CCN1CCC(=C(c2ccc(F)cc2)c2ccc(F)cc2)CC1 [Ritanserin]	1.8	7.9
